In US6423342B1, “Process for the preparation of a solid pharmaceutical dosage form” (R. P. Scherer Corporation, priority 1995, dated 2002):
Structures can show the parent of a compound that is named as a salt.

Legend:
Type in all cases: physicochemical
[1] = Effect of storage in frozen state prior to drying on selegiline HCl assay of fast-dispersing dosage forms
Procedure: (§1) 250 mg of the selegiline hydrochloride 2.0% dispersion formed in (a) above was dosed into each one of a series of pre-formed blister pockets having a pocket diameter of 12-mm. The blister laminate comprised 200 μm PVC/30 μm PE/PVDC 90 g per square metre. The product was frozen immediately in a liquid nitrogen freeze tunnel. The frozen product was then stored below −20° C. for a minimum of 24 hours prior to freeze-drying in a freeze drier using a drying temperature of +20° C. and a chamber pressure of 0.5 mbar. The freeze-dried units were then inspected for the presence of critical defects and the remainder of the batch sealed with lidding foil consisting of a paper/foil laminate (20 μm aluminium). Each blister was then coded with a batch number and over-wrapped in a preformed sachet by placing the blister in the sachet and sealing the open end of the sachet completely. Each sachet was then labeled with the product name, batch number, date of manufacture and suppliers name.
Two batches of selegiline fast-dispersing dosage forms manufactured as described in Example I were stored at different temperatures in the frozen state prior to drying.

[2] = Solution pH of the dispersion at varied citric acid concentration
[3] = Physical properties of the dosage form at varied citric acid level; details: citric acid levels higher than 0.5%; causing, for instance, cracking and base melting
Source text: It can be seen that a minimum level of 0.5% citric acid is required to inhibit this loss of selegiline.

[4] = Effect of pH modification (citric acid level) on stability of selegiline hydrochloride fast-dispersing dosage forms stored at 40° C./80% relative humidity; parameters: unit not given beside the values
Procedure: Gelatin (720 g) and mannitol (540 g) were dispersed in a portion of purified water (15.73 kg) by mixing thoroughly in the bowl of a vacuum mixer. The remaining water (1.5 litres) was added under vacuum while mixing using an anchor stirrer. The mix was then heated to 40° C.±2° C. and homogenized for ten minutes. The mix was cooled down to room temperature. When cooled, a 4500 g portion of the mix was removed into a stainless steel vessel and glycine (360 g), aspartame (90 g), grapefruit flavor (54 g), Opatint yellow (54 g) and citric acid (90 g) were then added sequentially to this portion while homogenizing using a bench top homogenizer. The remainder of the mix was transferred into a second stainless steel vessel. Selegiline hydrochloride (360 g) was then added to the mix in the second vessel and the mix homogenized for ten minutes using a bench top mixer to dissolve the drug. Once dispersion of the coloring agent was complete, the portion of the mix removed to the first vessel was returned to the mixer bowl together with the homogenized mix from the second vessel. The combined mixes were then mixed for at least 20 minutes. The bulk dispersion was then homogenized to ensure that mixing was complete.
as §1
A series of dosage forms were manufactured as described in Example 1 but the quantity of citric acid used was varied. The dosage forms were then stored at 40° C./80% relative humidity for up to 7 weeks and the quantity of selegiline hydrochloride in these dosage forms was assayed at regular intervals.

SMILES: C#CCN(C)C(C)Cc1ccccc1 (single isomer, unassigned; (-)) [selegiline hydrochloride, (−)-N,α-dimethyl-N-2-propynylphenethylamine]
- Assay Selegiline HCI ([1]; Frozen storage temperature −20 ° C. prior to drying, 2 week): 4.97 mg
- Assay Selegiline HCI ([1]; Frozen storage temperature −20 ° C. prior to drying, 4 week): 4.98 mg
- Assay Selegiline HCI ([1]; Frozen storage temperature −20 ° C. prior to drying, Time = 0): 5.01 mg
- Assay Selegiline HCI ([1]; Frozen storage temperature −25 ° C. prior to drying, 1 week): 4.85 mg
- Assay Selegiline HCI ([1]; Frozen storage temperature −25 ° C. prior to drying, 2 week): 4.79 mg
- Assay Selegiline HCI ([1]; Frozen storage temperature −25 ° C. prior to drying, 4 week): 4.74 mg
- Assay Selegiline HCI ([1]; Frozen storage temperature −25 ° C. prior to drying, Time = 0): 4.87 mg
- Solution pH ([2]; Conc. of citric acid 0 % w/w): 5.38
- Solution pH ([2]; Conc. of citric acid 0.25 % w/w): 4.21
- Solution pH ([2]; Conc. of citric acid 0.50 % w/w): 3.82
- Solution pH ([2]; Conc. of citric acid 1.0 % w/w): 3.45
- Solution pH ([2]; Conc. of citric acid 2.0 % w/w): 3.11
- effect on the physical properties of the dosage form [3]: deleterious effect
- quantity of selegiline hydrochloride in dosage form ([4]; citric acid 0 % w/w, solution pH 5.38, 1 week at 40° C./80% relative humidity): 3.86
- quantity of selegiline hydrochloride in dosage form ([4]; citric acid 0 % w/w, solution pH 5.38, 2 week at 40° C./80% relative humidity): 3.31
- quantity of selegiline hydrochloride in dosage form ([4]; citric acid 0 % w/w, solution pH 5.38, 4 week at 40° C./80% relative humidity): 3.32
- quantity of selegiline hydrochloride in dosage form ([4]; citric acid 0 % w/w, solution pH 5.38, Time = 0): 4.79
- quantity of selegiline hydrochloride in dosage form ([4]; citric acid 0.25 % w/w, solution pH 4.21, 1 week at 40° C./80% relative humidity): 4.70
- quantity of selegiline hydrochloride in dosage form ([4]; citric acid 0.25 % w/w, solution pH 4.21, 2 week at 40° C./80% relative humidity): 4.67
- quantity of selegiline hydrochloride in dosage form ([4]; citric acid 0.25 % w/w, solution pH 4.21, 4 week at 40° C./80% relative humidity): 4.74
- quantity of selegiline hydrochloride in dosage form ([4]; citric acid 0.25 % w/w, solution pH 4.21, 7 week at 40° C./80% relative humidity): 4.65
- quantity of selegiline hydrochloride in dosage form ([4]; citric acid 0.25 % w/w, solution pH 4.21, Time = 0): 4.95
- quantity of selegiline hydrochloride in dosage form ([4]; citric acid 0.50 % w/w, solution pH 3.82, 1 week at 40° C./80% relative humidity): 4.98
- quantity of selegiline hydrochloride in dosage form ([4]; citric acid 0.50 % w/w, solution pH 3.82, 2 week at 40° C./80% relative humidity): 4.98
- quantity of selegiline hydrochloride in dosage form ([4]; citric acid 0.50 % w/w, solution pH 3.82, 4 week at 40° C./80% relative humidity): 4.98
- quantity of selegiline hydrochloride in dosage form ([4]; citric acid 0.50 % w/w, solution pH 3.82, 7 week at 40° C./80% relative humidity): 4.96
- quantity of selegiline hydrochloride in dosage form ([4]; citric acid 0.50 % w/w, solution pH 3.82, Time = 0): 5.05
- quantity of selegiline hydrochloride in dosage form ([4]; citric acid 1.0 % w/w, solution pH 3.45, 1 week at 40° C./80% relative humidity): 5.03
- quantity of selegiline hydrochloride in dosage form ([4]; citric acid 1.0 % w/w, solution pH 3.45, 2 week at 40° C./80% relative humidity): 5.04
- quantity of selegiline hydrochloride in dosage form ([4]; citric acid 1.0 % w/w, solution pH 3.45, 4 week at 40° C./80% relative humidity): 5.05
- quantity of selegiline hydrochloride in dosage form ([4]; citric acid 1.0 % w/w, solution pH 3.45, 7 week at 40° C./80% relative humidity): 5.00
- quantity of selegiline hydrochloride in dosage form ([4]; citric acid 1.0 % w/w, solution pH 3.45, Time = 0): 5.07
- quantity of selegiline hydrochloride in dosage form ([4]; citric acid 2.0 % w/w, solution pH 3.11, 1 week at 40° C./80% relative humidity): 4.99
- quantity of selegiline hydrochloride in dosage form ([4]; citric acid 2.0 % w/w, solution pH 3.11, 2 week at 40° C./80% relative humidity): 5.01
- quantity of selegiline hydrochloride in dosage form ([4]; citric acid 2.0 % w/w, solution pH 3.11, 4 week at 40° C./80% relative humidity): 5.02
- quantity of selegiline hydrochloride in dosage form ([4]; citric acid 2.0 % w/w, solution pH 3.11, 7 week at 40° C./80% relative humidity): 4.96
- quantity of selegiline hydrochloride in dosage form ([4]; citric acid 2.0 % w/w, solution pH 3.11, Time = 0): 5.04
